Laboratory results taken from publication PMC6547440, “The HRP3 PWWP domain recognizes the minor groove of double-stranded DNA and recruits HRP3 to chromatin” (Nucleic Acids Research, 2019).
{FAM} = FAM (fluorescein) label on dsDNA for MST

Tests used:
HRP3 PWWP aromatic cage = experiment: Crystal structure of apo-form HRP3 PWWP (8–94), MES in aromatic cage; assay type: binding, human; conditions: 0.95 Å
Description: Crystallization was conducted using the sitting drop vapour diffusion method by mixing an equal volume of protein and well solution. Apo-form HRP3 PWWP (8–94) was crystallized with crystallization buffer containing 0.2 M ammonium sulfate, 0.1 M MES monohydrate, pH 6.5 and 30% w/v polyethylene glycol monomethyl ether 5000. The crystallization buffer containing 12% 2,3-butanediol was used as the cryoprotectant.
Datasets for all crystals were collected at the beamlines of the Shanghai Synchrotron Radiation Facility (SSRF). The datasets were processed using HKL2000 ([33]), and the structures were solved by molecular replacement using the programme PHENIX ([34]) with the HDGF2 PWWP domain (PDB number: 3EAE) as the search model. The initial model was rebuilt in COOT ([35]) and further refined by PHENIX.

HRP3 PWWP E53A = target: T1, HRP3 PWWP E53A (Homo sapiens, UniProt Q9Y3E1, E53A); experiment: NMR titration of H3K36me3 peptide with HRP3 PWWP E53A; assay type: binding; conditions: H3 residues 29–41, 20 mM PBS pH 6.9, 298 K
T1 construct: using ^15N-labelled HRP3 PWWP (residues 1–110) dissolved in buffer; 6xHis-SUMO (cleaved yes); made in house; host or cells: Escherichia coli Rosetta (DE3)
Description: (§1) All 2D ^1H-^15N HSQC NMR spectra were collected on the Bruker Avance III HD 600 MHz and 800 MHz spectrometers at 298 K. The NMR data were processed by NMRPipe ([39]) and analysed by KUJIRA ([40]) running with NMRview ([41]) softwares. Chemical shift perturbation experiments were carried out using ^15N-labelled HRP3 PWWP (residues 1–110) dissolved in buffer containing 20 mM PBS at pH 6.9, 20 mM NaCl and 2 mM DTT. A series of 2D ^1H-^15N HSQC spectra were recorded at HRP3 PWWP:H3K36me3/2/1/0 (residues 29–41) molar ratios of 1:0, 1:0.5, 1:1.5, 1:4, 1:6, 1:10, 1:15 and 1:20, respectively. The combined chemical shift perturbation was calculated using the following equation: Δδ = [(Δδ^1H)^2 + (Δδ^15N/5)^2]^1/2. Dissociation constants were calculated by fitting the data to a single-site ligand-binding model (SigmaPlot).

HRP3 PWWP Y22A = target: T2, HRP3 PWWP Y22A (Homo sapiens, UniProt Q9Y3E1, Y22A); experiment: NMR titration of H3K36me3 peptide with HRP3 PWWP Y22A; assay type: binding; conditions: H3 residues 29–41, 20 mM PBS pH 6.9, 298 K
T2 construct: using ^15N-labelled HRP3 PWWP (residues 1–110) dissolved in buffer; 6xHis-SUMO (cleaved yes); made in house; host or cells: Escherichia coli Rosetta (DE3)
Description: as §1

HRP3 PWWP F48A = target: T3, HRP3 PWWP F48A (Homo sapiens, UniProt Q9Y3E1, F48A); experiment: NMR titration of H3K36me3 peptide with HRP3 PWWP F48A; assay type: binding; conditions: H3 residues 29–41, 20 mM PBS pH 6.9, 298 K
T3 construct: using ^15N-labelled HRP3 PWWP (residues 1–110) dissolved in buffer; 6xHis-SUMO (cleaved yes); made in house; host or cells: Escherichia coli Rosetta (DE3)
Description: as §1

HRP3 PWWP WT = target: T4, HRP3 PWWP WT (Homo sapiens, UniProt Q9Y3E1); experiment: NMR titration of H3K36 peptides with wild-type HRP3 PWWP; assay type: binding; conditions: 15N-labelled HRP3 PWWP (1–110) WT, H3 residues 29–41, 20 mM PBS pH 6.9, 20 mM NaCl, 2 mM DTT, 298 K
T4 construct: using ^15N-labelled HRP3 PWWP (residues 1–110) dissolved in buffer; 6xHis-SUMO (cleaved yes); made in house; host or cells: Escherichia coli Rosetta (DE3)
Description: as §1

HRP3 PWWP [1] = experiment: ITC of HRP3 PWWP with dsDNAs; assay type: binding, human; conditions: 20°C, HRP3 PWWP (1–110), 10 mM PBS pH 7.0, 50 mM NaCl, 2 mM β-mercaptoethanol
Description: Isothermal titration calorimetry-based measurements were carried out at 20°C with a MicroCal iTC200 instrument. HRP3 PWWP (1–110) and various dsDNAs were dialysed overnight at 4°C in titration buffer containing 10 mM phosphate-buffered saline (PBS) at pH 7.0, 50 mM NaCl and 2 mM β-mercaptoethanol. Calorimetric titration data were fitted with the Origin software under the algorithm of one binding-site model.

HRP3 PWWP [2] = experiment: MST binding of 5′-FAM-labelled dsDNAs to HRP3 PWWP; set-up: species or system human; conditions: 16-mer-TA versus 16-mer-random and 16-mer-GC
Description: All Mircoscale thermophoresis (MST) experiments were performed on a Monolith NT115 machine with 20% MST power and 100% LED power. All protein and DNA samples were dissolved in solution containing 50 mM KCl, 10 mM sodium cacodylate at pH 6.5 and 2 mM DTT. The MST samples were prepared by mixing HRP3(1-110) at concentrations ranging from 3 nM to 100 μM into a solution containing 200 nM 5′-FAM-labelled dsDNA. Experiments were performed using Monolith NT115 Standard Treated Capillaries, MO-K002. Dissociation constants were fitted with the MO Affinity Analysis software.
The DNA sequences used in this assay are as follows: 5′-FAM-16TA: 5′-[…]-3′; 5′-FAM-16GC: 5′-[…]-3′; and 5′-FAM-16random: 5′-[…]-3′.

HRP3 PWWP [3] = experiment: DNA geometry analysis of the PWWP/DNA complex structures; set-up: species or system human
Description: DNA geometry was analysed with the 3DNA ([42]) and Curves+ ([43]) programs. Electrostatic potentials were calculated using the DelPhi program ([44]). The minor groove width was measured according to the method described ([45]). In detail, the distances between the ith (i indicates the number of the base from one chain) phosphate atom from one chain and the (i + 4)th atom from the paired chain were used to describe the minor groove width at the ith base. Electrostatic potentials were calculated at the midpoints between the above phosphate atom pairs used to calculate the minor groove widths.

HepG2 cells = experiment: Fluorescence microscopy of GFP-HRP3 in HepG2 cells; assay type: cell-based, human; conditions: GFP fusion in HepG2 cells
Description: (§2) HepG2 (ATCC HB-8065) and HEK293T human embryonic kidney cells (ATCC #CRL-11268) were cultured in Dulbecco’s modified Eagle’s medium supplemented with 10% FBS. Stable overexpression of wild-type or mutant HRP3 in HepG2 cells was performed using FUGW lentiviral constructs expressing wild-type or mutant HRP3. Lentiviral vector infections ([47]) and plasmid transfections ([48]) were performed as previously described. Overexpression efficiency was determined by western blot.
The cells were first fixed with 4% paraformaldehyde in PBS buffer for 30 min at room temperature, and then washed with PBS buffer twice. The cells were permeabilized with 0.5% Triton X-100 in PBS buffer for 10 min followed with PBS washing twice. Then, the cells were incubated with1 μg/ml 4′,6-diamidino-2-phenylindole (DAPI) (C0060, Solarbio) in PBS for 5 min. After washing with PBS buffer twice, the cells were ready for microscopic observation. 3D structural illumination microscopy was performed using N-SIM Super-resolution Microscope System (Nikon) with an objective lens CFI Plan (Apochromat Lambda 40 ×, 0.95 numerical aperture; Nikon).

chromatin of HepG2 cells = experiment: ChIP-Seq of GFP-HRP3 variants in HepG2 cells; assay type: cell-based, human
Description: as §2
For chromatin immunoprecipitation, HepG2 cells were cross-linked with 1% formaldehyde at 37°C for 10 min and quenched with 0.125 M glycine for 5 min at room temperature. ChIP was performed using a ChIP assay kit (Millipore) according to the manufacturer’s protocol. Antibodies used for ChIP were GFP (gta-20, Chromo-Tek) and H3K36me3 (ab9050, abcam).
ChIP-Seq data were aligned to human genome hg19 using Bowtie 1.0 allowing one mismatch. Two biological replicates were performed and combined for the analysis. Analysis was performed using the Galaxy ([49]) and Cistrome ([50]) Platform and via custom R scripts for Bioconductor ([51]). Peak calling was performed using MACS2. Promoter definitions were downloaded from the UCSC browser ([52]). DNase I hypersensitivity and MNase-Seq data from ENCODE (GSM816662, GSM920557) ([53]) were used.

T1 sequence (Q9Y3E1 1-110 E53A limits assumed): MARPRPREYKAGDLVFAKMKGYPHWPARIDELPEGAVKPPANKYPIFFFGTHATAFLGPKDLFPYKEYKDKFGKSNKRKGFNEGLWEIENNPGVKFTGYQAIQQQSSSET
T4 sequence (Q9Y3E1 1-110): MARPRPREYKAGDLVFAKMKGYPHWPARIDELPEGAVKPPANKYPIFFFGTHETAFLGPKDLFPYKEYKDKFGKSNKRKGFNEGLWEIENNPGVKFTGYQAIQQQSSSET
T3 sequence (Q9Y3E1 1-110 F48A limits assumed): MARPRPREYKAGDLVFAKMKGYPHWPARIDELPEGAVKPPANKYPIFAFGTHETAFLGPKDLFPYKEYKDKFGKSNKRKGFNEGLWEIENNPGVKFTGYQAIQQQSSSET
T2 sequence (Q9Y3E1 1-110 Y22A): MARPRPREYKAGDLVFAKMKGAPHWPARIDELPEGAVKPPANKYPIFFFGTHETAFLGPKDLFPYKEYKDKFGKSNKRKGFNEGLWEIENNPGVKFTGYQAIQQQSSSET

O=S(=O)(O)CCN1CCOCC1 [MES]
position of bound molecule (HRP3 PWWP aromatic cage): positioned in the middle of the aromatic cage

CC(C)[C@H](NC(=O)CNC(=O)CNC(=O)[C@@H](NC(=O)[C@H](C)NC(=O)[C@@H]1CCCN1C(=O)[C@H](C)N)[C@@H](C)O)C(=O)N[C@@H](CCCC[N+](C)(C)C)C(=O)N[C@@H](CCCCN)C(=O)N1CCC[C@H]1C(=O)N[C@@H](Cc1c[nH]cn1)C(=O)N[C@@H](CCCNC(=N)N)C(=O)N[C@@H](Cc1ccc(O)cc1)C(=O)O [H3K36me3]
Kd (HRP3 PWWP E53A): 8 ± 1.9 mM
Kd (HRP3 PWWP Y22A): 21 ± 9 mM
Kd (HRP3 PWWP F48A): 9.4 ± 2.1 mM
Kd (HRP3 PWWP WT): 1.4 ± 0.6 mM

5′-TATATATATATATATA-3′ (DNA, 5' {FAM}, backbone not given here; double-stranded DNA, FAM label in MST assay) [16-mer-TA, 16-bp TA-rich dsDNA]
TA-rich preference by ITC (HRP3 PWWP [1]): TA-rich preference was further verified by ITC-based measurements
fold higher affinity (HRP3 PWWP [2]): 2–3 fold
average helical twist (HRP3 PWWP [3]; 3DNA): 37.1 °
average propeller twist (HRP3 PWWP [3]; 3DNA): −11.2 °
bending angle towards the minor groove per 6 bps (HRP3 PWWP [3]; Curve+ software): 2.9 °
width of the minor groove, PWWP-binding region (HRP3 PWWP [3]; crystal structure of complex): 10.7 Å
width of the minor groove, PWWP-free region (HRP3 PWWP [3]; crystal structure of complex): 10.8 Å

HRP3: wild-type human HRP3 as GFP fusion protein in HepG2 cells
subcellular localisation (HepG2 cells): enriched in the nucleus
DNase I hypersensitivity and nucleosome density of HRP3-enriched regions (chromatin of HepG2 cells; ChIP-Seq versus ENCODE DNase I / MNase-Seq data): increased DNase I hypersensitivity and reduced nucleosome density
chromatin binding / recruitment by ChIP-Seq (chromatin of HepG2 cells; ChIP-Seq with GFP antibody, HepG2, two biological replicates combined): enriched at promoters and gene bodies
specific DNA-binding motif enrichment (chromatin of HepG2 cells; ChIP-Seq, HepG2): could not detect the enrichment of a specific DNA-binding motif
